Laboratory results from article PMC9586938, “Picomolar fluorescent probes for compound affinity determination to carbonic anhydrase IX expressed in live cancer cells” (Scientific Reports, 2022).

Tests used:
[1] = target: T1, CAIX expressed on HeLa cells (Homo sapiens, UniProt Q16790); experiment: Fluorescein-labeled compound dosing to hypoxia-grown WT HeLa cells (Morrison single-site model); type: cell-based
T1 construct: recombinant CAIX and endogenous CAIX expressed on the cell surface; endogenous in cells; host or cells: HeLa (WT), grown under hypoxia (1% O2)
Protocol: HeLa cell culture was grown in 12-well plates, either under hypoxia (1% O2) or under normoxia (21% O2), for 70 to 76 h. The medium was removed. Then 200 µL of serially diluted compound (twelve twofold steps) in the FB medium, usually starting at 80 nM (80, 40, 20, …, 0 nM), was added and incubated at 37 ℃ under normoxia in the CO2 incubator for 20 min (2 or 5 min in some experiments where specified). Then the compound solution was removed and the cells were washed 3 times for 1.5–2 min with 400 µL of PBS at RT. Then 180 µL of TrypLe express enzyme (ThermoFisher) was added to each well and incubated in CO2 incubator for 5 min to 10 min until the cells deattached from the surface. After addition of 20 µL of Defined Trypsin Inhibitor solution (ThermoFisher), cells were resuspended by pipetting and 150 µL of the suspension from each well were transferred to black Thermo Scientific™ Nunc MicroWell 96-Well Optical-Bottom Plates for fluorescence and absorbance measurements. The fluorescence was recorded at 485 nm excitation and 520 nm emission wavelengths in the plate reader (Synergy HTX, BioTek). The absorbance was recorded at 650 nm to measure the optical density of the cell suspension.
The compound solution was prepared by weighing 3–5 mg of a purified compound and dissolving in DMSO at 10 mM concentration. The 1 mM compound stock in DMSO was prepared by taking 10 µL of 10 mM stock and adding to 90 µL DMSO. The 10 µM compound stock was prepared by taking 10 µL of 1 mM compound stock in DMSO and adding 990 µL of the FB medium (this stock contained 1% of DMSO). Then 80 nM compound solution was prepared by taking 10 µL of 10 µM solution and adding 1.24 mL of the FB medium and placed to the first Eppendorf tube. Then 300 µL of FB medium were added to the Eppendorf tubes 2 to 12. A serial dilution was performed by taking 300 µL of solution from tube 1 to 2, then from 2 to 3 and so on while mixing vigorously at each step. No solution was transferred to the last tube thus it contained only FB medium and no compound. Then 200 µL from 12 tubes were transferred to the 12 wells of cell culture-containing 12-well plate, starting from the lowest concentration.
Application of fluorescently labeled ligand GZ19-32 to cancer cells expressing CAIX will stain the cells in dose-dependent manner. The fraction of saturation increases from 0 to 1. The fraction of bound GZ19-32 (f) is equal to the molar concentration of bound GZ19-32 per molar concentration of total available CAIX, the so-called total protein Pt . f=GZ19-32bound/Pt
Upon GZ19-32 dosing, the observed fluorescence signal F can be modeled to change from the minimal background signal ( Fmin ) to maximal saturated value ( Fmax ): F=Fmin+Fmax-Fminf […]

CAIX on live HeLa cells = target: T2, CAIX on live HeLa cells (Homo sapiens, UniProt Q16790); experiment: Fluorescence microscopy (widefield, SRRF/TIRF) of live HeLa cells stained with fluorescein-labeled compounds; type: cell-based; conditions: 10 nM; for staining of live HeLa cells grown under hypoxia: 5 min
T2 construct: recombinant CAIX and endogenous CAIX expressed on the cell surface; endogenous in cells; host or cells: HeLa (WT), grown under hypoxia (1% O2)

[2] = target: T3, catalytic domain of recombinant human CAIX (Homo sapiens, UniProt Q16790); experiment: Stopped-flow assay (SFA) of inhibition of CAIX catalytic activity; type: biochemical
T3 construct: Isozymes CAIX, CAXII, and CAXIV were the catalytic domains of the proteins; made in house; host or cells: mammalian cells
Protocol: (§1) The binding affinities of all fluorescein-containing compounds were determined for all 12 catalytically active CA isozymes by the thermal shift assay (TSA). […] However, the SFA technique cannot determine the affinities lower than the enzyme concentration used in the assay. […] In addition, we used isothermal titration calorimetry (ITC), the standard assay to determine affinity and enthalpy of protein–ligand binding. […] Therefore, ITC was used only to determine the enthalpy of interaction and confirm the ordering of compound affinities.
Inhibition of the CAIX catalytic activity (hydration reaction of CO2 to acid protons and bicarbonate) by selected compounds has been determined as previously described[41],[42]. The CA enzymatic activity and its inhibition were followed by the rate of change in pH spectrophotometrically followed by the change in color of indicator phenol red. Addition of increased concentrations of an inhibitor slowed the rate of the change in pH. The assay was performed using the stopped-flow equipment. The rate of spontaneous acidification due to CO2 hydration in water was subtracted from the enzymatically catalyzed rate.

CAVA = target: T4, CAVA (Homo sapiens, UniProt P35218); experiment: Thermal shift assay (TSA), recombinant CAVA; type: binding; conditions: 37 °C, pH 7.0, observed (not intrinsic)
T4 construct: made in house; host or cells: E. coli
T4 sequence (P35218 39-305): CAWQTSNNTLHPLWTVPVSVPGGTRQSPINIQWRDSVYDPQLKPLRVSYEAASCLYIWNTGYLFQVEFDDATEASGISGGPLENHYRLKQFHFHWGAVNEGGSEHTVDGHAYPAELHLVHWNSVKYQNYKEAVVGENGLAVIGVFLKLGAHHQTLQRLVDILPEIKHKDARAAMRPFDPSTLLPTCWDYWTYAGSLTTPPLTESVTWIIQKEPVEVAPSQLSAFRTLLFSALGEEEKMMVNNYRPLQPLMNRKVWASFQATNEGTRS
Protocol: as §1
(§2) All twelve catalytically active human CA isozymes were prepared recombinantly as previously described. Isozymes CAIX, CAXII, and CAXIV were the catalytic domains of the proteins[14],[38]. All isozymes were expressed in E. coli except CAIX that has been prepared in mammalian cells. The proteins were chromatographically purified on ion-exchange or benzene sulfonamide containing affinity columns. Protein MW was confirmed by mass spectrometry with 1 Da precision as predicted from gene sequence.
(§3) Compound affinities for the twelve catalytically active CA isozymes were determined by the thermal shift assay as previously described[30],[39]. Protein solutions containing 1,8-anilinonaphthalenesulfonate fluorescent probe were heated from 25 to 100 °C at a rate of one degree per minute while following the fluorescence of the probe. The temperature scanning curves provided the melting temperature Tm of the protein. The Tm has a distinct dependence on the concentration of a compound. Stronger binders shift the Tm to a greater extent than the weak binders. The Tm dependencies on compound concentration were fit to obtain the affinity Kd[40].

CAII = target: T5, CAII (Homo sapiens, UniProt P00918); experiment: Thermal shift assay (TSA), recombinant CAII; type: binding; conditions: 37 °C, pH 7.0, observed (not intrinsic)
T5 construct: made in house; host or cells: E. coli
Protocol: as §1, §2, §3

CAIV = target: T6, CAIV (Homo sapiens, UniProt P22748); experiment: Thermal shift assay (TSA), recombinant CAIV; type: binding; conditions: 37 °C, pH 7.0, observed (not intrinsic)
T6 construct: made in house; host or cells: E. coli
T6 sequence (P22748 19-312): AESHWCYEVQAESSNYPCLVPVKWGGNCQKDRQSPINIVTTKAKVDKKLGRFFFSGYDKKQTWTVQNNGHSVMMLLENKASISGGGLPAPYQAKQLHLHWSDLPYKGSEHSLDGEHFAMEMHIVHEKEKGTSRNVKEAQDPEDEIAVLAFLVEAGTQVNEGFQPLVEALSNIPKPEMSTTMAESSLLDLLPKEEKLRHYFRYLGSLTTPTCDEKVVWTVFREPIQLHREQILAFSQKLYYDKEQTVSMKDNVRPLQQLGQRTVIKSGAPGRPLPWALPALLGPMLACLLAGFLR

CAVI = target: T7, CAVI (Homo sapiens, UniProt P23280); experiment: Thermal shift assay (TSA), recombinant CAVI; type: binding; conditions: 37 °C, pH 7.0, observed (not intrinsic)
T7 construct: made in house; host or cells: E. coli
T7 sequence (P23280 18-308): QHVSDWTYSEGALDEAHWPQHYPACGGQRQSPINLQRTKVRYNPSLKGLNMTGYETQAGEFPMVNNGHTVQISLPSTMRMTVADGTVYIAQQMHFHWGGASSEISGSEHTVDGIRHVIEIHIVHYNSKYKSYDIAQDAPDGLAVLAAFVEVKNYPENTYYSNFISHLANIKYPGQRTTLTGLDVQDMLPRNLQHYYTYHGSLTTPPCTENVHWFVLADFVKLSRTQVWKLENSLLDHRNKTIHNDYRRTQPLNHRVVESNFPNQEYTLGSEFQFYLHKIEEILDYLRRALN
Protocol: as §1, §2, §3

[3] = target: T8, CAIX expressed on live HeLa cells (Homo sapiens, UniProt Q16790); experiment: Competition of unlabeled compound with 10 nM GZ19-32 on hypoxic HeLa cells (competitive binding model); type: cell-based; conditions: fit parameter of the competitive binding model, HeLa cells; read-out: KdB (competing fluorescent compound, component B)
T8 construct: recombinant CAIX and endogenous CAIX expressed on the cell surface; endogenous in cells; host or cells: HeLa (WT), grown under hypoxia (1% O2)

Compound | binding to hypoxia-grown HeLa cells in the nM concentration region ([1]; same conditions as GZ19-32, up to about 100 nM) | staining of live HeLa cells grown under hypoxia (CAIX on live HeLa cells) | Ki [2] [nM] | Kd (CAVA) [nM] | Kd (CAII) [nM] | Kd (CAIV) [nM] | Kd (CAVI) [nM] | Kd [3] [nM] | number of bound molecules per HeLa cell ([1]; approximately 80 h of growth under hypoxia) | concentration at which saturation was reached ([1]; hypoxia-grown HeLa cells) | Manders overlap coefficient M1, colocalization with H7 CAIX antibody (CAIX on live HeLa cells; hypoxia-grown live HeLa cells) | Manders overlap coefficient M2, colocalization with H7 CAIX antibody (CAIX on live HeLa cells; hypoxia-grown live HeLa cells) | object based spot collocalization with H7 CAIX antibody (CAIX on live HeLa cells; hypoxia-grown live HeLa cells) | pixel based Person's correlation coefficient, colocalization with H7 CAIX antibody (CAIX on live HeLa cells; hypoxia-grown live HeLa cells) | Pearson co-localization coefficient with CAXII-selective 1B10 antibody (CAIX on live HeLa cells; hypoxia-grown live HeLa cells, SRRF/TIRF)
3-((2-(cyclooctylamino)-3,5,6-trifluoro-4-(methylsulfonyl)phenyl)sulfonyl)-N-(3',6'-dihydroxy-3-oxo-3H-spiro[isobenzofuran-1,9'-xanthen]-5-yl)propanamide and 3-((3-(cyclooctylamino)-2,5,6-trifluoro-4-(methylsulfonyl)phenyl)sulfonyl)-N-(3',6'-dihydroxy-3-oxo-3H-spiro[isobenzofuran-1,9'-xanthen]-5-yl)propanamide [GZ20-37] | did not bind | did not bind | 1500 | > 100000 | > 100000 | > 100000 | > 100000 |  |  |  |  |  |  |  | 
NS(=O)(=O)c1c(F)c(F)c(S(=O)(=O)CCC(=O)Nc2ccc3c(c2)C(=O)OC32c3ccc(O)cc3Oc3cc(O)ccc32)c(NC2CCCCCCC2)c1F [GZ19-32, 3-((2-(cyclooctylamino)-3,5,6-trifluoro-4-sulfamoylphenyl)sulfonyl)-N-(3',6'-dihydroxy-3-oxo-3H-spiro[isobenzofuran-1,9'-xanthen]-5-yl)propanamide] |  | labeled the cell membrane |  | 400 | 14 | 100 | 330 | 0.2 | exceeded 1 million | approximately 10 nM | 0.82 | 0.65 | 0.75 | 0.82 | 0.02
